Assays:
Human IL2 promoter = Human IL2 promoter reporter gene assay (RGA) in Jurkat cells; assay type: cell-based; settings: Jurkat clone K22 290_H23, anti-CD28 mAb + PMA, 5.5 h
Experimental: Human IL2 Promoter Reporter Gene Assay (RGA) in Jurkat Cells
The transfected Jurkat clone K22 290_H23 was propagated in RPMI 1640 supplemented with 10% heat inactivated fetal calf serum, 50 μM 2-mercaptoethanol and 1 mg/ml Geneticin. The cell concentration should not exceed 1×10e6/ml during culturing. The cells should not exceed passage 30. Prior to the assay the cells were washed and prepared to the concentration of 2×10e6 cells/ml.
Compound dilutions were made as 2×-concentrated solutions then diluted ½ by addition to cells. Two hundred and fifty μl of compound dilution and 250 μl of cells were mixed together in wells of a 96-deep well plate. Cells/compounds premix were incubated 30 min at 37° C. and 5% CO2 directly in the deep well plate.
After pre-incubation of cells with compounds, cells were stimulated with anti-CD28 mAb (clone 15E8) at 3 μg/ml+PMA at 1 μg/ml. Both co-stimulants were diluted in culture medium at a 10×-concentrated solution. 10 μl of co-stimulants were pipetted into the white 96-well plates and 100 μl of cell/compound mix was immediately added in duplicates. The cells were stimulated for 5.5 h at 37° C. and 5% CO2.
After cell stimulation, 50 μl of BriteLitePlus reagent (Perkin Elmer) was added to each well and the bioluminescence was measured with a Wallac EnVision reader (Perkin Elmer).

[1] = molecular target: T1, C-domain of MALT1 (amino acids 329-824) (Homo sapiens, UniProt Q9UDY8); test: MALT1 Biochemical Assay - Version 2 (fluorescence intensity); design: C-domain of MALT1 (amino acids 329-824); settings: fluorescence intensity readout, Rh110 substrate
T1 sequence (Q9UDY8 329-824): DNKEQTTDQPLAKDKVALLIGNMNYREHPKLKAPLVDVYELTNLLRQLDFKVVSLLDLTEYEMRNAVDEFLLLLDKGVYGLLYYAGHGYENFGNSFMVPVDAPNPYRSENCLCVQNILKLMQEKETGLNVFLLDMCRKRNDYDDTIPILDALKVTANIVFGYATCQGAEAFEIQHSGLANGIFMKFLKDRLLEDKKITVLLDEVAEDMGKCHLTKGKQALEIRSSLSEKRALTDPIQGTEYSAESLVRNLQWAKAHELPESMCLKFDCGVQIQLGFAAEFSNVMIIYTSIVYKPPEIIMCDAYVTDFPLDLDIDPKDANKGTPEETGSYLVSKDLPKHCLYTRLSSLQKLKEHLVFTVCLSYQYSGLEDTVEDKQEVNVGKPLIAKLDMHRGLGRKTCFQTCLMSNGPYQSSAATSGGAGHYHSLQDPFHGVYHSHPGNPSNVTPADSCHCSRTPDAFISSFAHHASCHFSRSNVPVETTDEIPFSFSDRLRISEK
Experimental: Alternatively the biochemical activity of some examples, namely example 43 and the Reference compound, were determined by measuring fluorescence intensity as described below:
MALT1 Biochemical Assay—Version 2:
The readout parameter is the increase of fluorescence intensity, proportional to enzyme activity.
The assay employs a short peptide substrate labeled with the fluorophore Rhodamine 110 (Rh110) as a fluorescence probe sensitive to the cleavage state of the substrate. The peptide substrate has the following sequence: Ac-Leu-Arg-Ser-Arg^Rh110-dPro (Product number BS-3027, Biosyntan, Germany; within the substrate sequence, A indicates the scissile bond). […] The assay was established for the 384-well plate format using black microtiter well plates. Test compounds were dissolved in 100% (v/v) DMSO or a mixture containing 90% (v/v) DMSO and 10% (v/v) H2O at a stock concentration of 100 mM. Serial dilutions of test compounds were prepared using either 100% (v/v) DMSO or a mixture containing 90% (v/v) DMSO and 10% (v/v) H2O.
y=A2+(A1−A2)/(1+(x/IC50)^ p) where y is the %-inhibition at the inhibitor concentration, x. A1 is the lowest inhibition value, and A2 the maximum inhibition value. The exponent, p, is the Hill coefficient.

[2] = molecular target: T1, C-domain of MALT1 (amino acids 329-824); test: MALT1 Biochemical Assay - Version 1 (fluorescence lifetime)
Experimental: The readout parameter is the increase of fluorescence lifetime over time, proportional to enzyme activity.
The assay employs a short peptide substrate labeled with the single fluorophore PT14 as a fluorescence lifetime probe sensitive to the cleavage state of the substrate (PT14: 6-(9-oxo-9H-acridin-10-yl)-hexanoate, AssayMetrics, UK). […] Test compounds were dissolved in 100% (v/v) DMSO or a mixture containing 90% (v/v) DMSO and 10% (v/v) H2O at a stock concentration of 100 mM. Serial dilutions of test compounds were prepared using either 100% (v/v) DMSO or a mixture containing 90% (v/v) DMSO and 10% (v/v) H2O.

SMILES	IC50 (Human IL2 promoter)	IC50 [1]	IC50 [2]
CO[C@@H](C)c1c(NC(=O)Nc2cnc(C(N)=O)c(Cl)c2)cnc2cc(F)nn12 [Example 43, (S)-3-chloro-5-(3-(2-fluoro-7-(1-methoxyethyl)pyrazolo[1,5-a]pyrimidin-6-yl)ureido)picolinamide]	69 nM	8 nM	–
CC(C)[C@H](NC(=O)OCc1ccccc1)C(=O)N[C@@H](C)C(=O)N[C@@H](CC(=O)OC(C)(C)C)C(=O)COC(=O)c1c(Cl)cccc1Cl [Reference**, reference compound]	–	6 nM	12 nM
